Laboratory results reported in patent US9198902B2, “1,4-dihydropyridine-3,5-dicarboxylate derivatives and preparation and use thereof” (Xuanzhu Pharma Co., Ltd., priority 2011, dated 2015).
Counter-ions that a name gives are not always drawn.

Tests used:
[1] = tested on: T-type calcium ion channels; assay: T-type calcium ion channel inhibition, whole cell patch-clamp (electrophysiological method); format: cell-based; settings: cerebral cortex nerve cells of suckling mice, room temperature
Excerpt: (§1) 2. Test for L- and T-Type Calcium Ion Channel Inhibitors
(§2) This experiment was assigned to HD Biosciences Corporation (Shanghai) and conducted with an electrophysiological method.
It was done with reference to the method as disclosed by Jung-Ha Lee, et. al., “Identification of T-Type α1H Ca^2+ Channels (Cav3.2) in Major Pelvic Ganglion Neurons”.
(§3) Test samples were weighed accurately and diluted in a 3-fold stepwise dilution so that the final concentrations were as follows:
T-type test: Cerebral cortex nerve cells were separated from suckling mice, and used in the experiment after 7 days of cultivation. The ionic current of a single cell was recorded by applying the whole cell patch-clamp technique at room temperature, wherein the clamp current was −90 mV, and the pulse interval was 10 s. The inward current (the activiation was started from −20 mV) is the T-type calcium current (ICa,T).
(§4) The electrode inner liquid (mM): CsCl 120, TEA-Cl 20, CaCl2 1, EGTA-CsOH 11, Hepes 10, Mg-ATP 5, pH7.3;

[2] = target: L-type calcium ion channels (Cavia porcellus, UniProt O35505); assay: L-type calcium ion channel inhibition, whole cell patch-clamp (electrophysiological method); format: cell-based; settings: left ventricle muscle cells of guinea pigs, room temperature
Excerpt: as §1, §2
It was done with reference to the method as disclosed by Jung-Ha Lee, et. al., “Identification of T-Type α1H Ca^2+ Channels (Cav3.2) in Major Pelvic Ganglion Neurons”. J Neurophysiol 87:2844-2850, 2002.
as §3
L-type test: Left ventricle muscle cells were separated from guinea pigs. The cells were used in the experiment in eight hours. The ionic current of a single cell was recorded by applying the whole cell patch-clamp technique at room temperature, wherein the clamp current was −80 mV, and the pulse interval was 10 s. The inward current (the activiation was started from 0 mV) is the L-type calcium current (ICa,L).
as §4
The electrode outer liquid (mM): NaCl 135, CsCl 5.4, CaCl2 1.8, MgCl2 1, Hepes 5, glucose 10, pH7.4.

[3] = tested on: SHRs (spontaneous hypertensive rats); assay: In vivo hypotensive activity in SHRs, tail-pinch method; settings: male SHRs, 10 mg/kg po; for Max ΔMAP (mmHg ± SEM): measured 1-24 h after administration
Method: The in vivo hypotensive activity assay was conducted according to the tail-pinch method with reference to Folia pharmacol. Japon. 97, 115-126 (1991).
The agents to be tested, lercanidipine, barnidipine, amlodipine, azelnidipine, efonidipine and manidipine, were accurately weighed respectively. Each agent was dissolved in DMSO. To the resulting solution was added 50% of the corresponding volume of PEG400 so that the final concentration of each agent was 1 mg/ml, and the final concentration of DMSO was 3%.
The compounds to be tested, Compound 18, Compound 21, Compound 22, Compound 23, and Compound 26, were accurately weighed respectively. Each compound was dissolved in DMSO. To the resulting solution was added 50% of the corresponding volume of PEG400 so that the final concentration of each compound was 1 mg/ml, and the final concentration of DMSO was 3%.
The compounds to be tested, Compound 19 and Compound 20, were accurately weighed respectively. Each compound was suspended in 0.5% MC so that the final concentration of each compound was 1 mg/ml.
The test for hypotensive effect: Male SHRs (spontaneous hypertensive rats) were randomly allocated into a control group and an administration group. The administration was an intragastric administration. One hour before the administration, the measured blood pressure was used as the pre-administration basic blood pressure value. After the administration, the contractive pressure, the heart rate and the mean arterial pressure of SHRs at six time points, i.e. 1, 2, 4, 6, 8 and 24 hours after the administration, were measured with a Softron BP-98A non-invasive blood pressure instrument respectively.

SHRs = assay: In vivo hypotensive activity in SHRs, DSI implant-type remote blood pressure measurement; design: species or system rats; settings: male SHRs, 10 mg/kg po, monitored 24 hours
Method: The in vivo hypotensive activity assay was conducted according to DSI experimental procedure with reference to page 56 of WO 2009/056934 A1. The agents to be tested, lercanidipine, barnidipine, amlodipine, azelnidipine, efonidipine and manidipine, were accurately weighed. Each agent was dissolved in DMSO. To the resulting solution was added 50% of the corresponding volume of PEG400 so that the final concentration of each agent was 1 mg/ml, and the final concentration of DMSO was 3%. […] Each compound was dissolved in DMSO. […] The compound to be tested, Compound 15, was accurately weighed. This compound was dissolved in DMSO. […] The compound to be tested, Compound 16 (optical activity)+108.34° and Compound 17 (optical activity optical activity)+36.4°, were accurately weighed. […] The test for hypotensive effect: Male SHRs were subjected to an abdominal aorta implantation using an implant, and used in the test after 7-10 days of recovery. The administration was an intragastric administration. One hour before the administration, the measured blood pressure was used as the pre-administration basic blood pressure value. After the administration, SHRs, allowed free access to the diet, were continuously monitored with a DSI implant-type blood pressure remote measurement system for 24 hours.

Human Cav3.2 = Human Cav3.2 (Homo sapiens, UniProt O95180); assay: T-type calcium ion channel inhibition, FLIPR method; format: cell-based; settings: Human Cav3.2 in stable HEK-293 cells, FLIPR Calcium 4 No-Wash kit
Method: T-type tests for Compound 19 and Compound 20 were assigned to Chan Test Corporation, and conducted according to the FLIPR experimental procedure as follows.
It was done with reference to the method disclosed on page 48 of WO 2009/056934 A1.
Samples were weighed accurately and diluted in a 3-fold stepwise dilution so that the final concentrations were as follows: 100 μM, 30 μM, 10 μM, 3 μM, 1 μM, 0.3 μM, 0.1 μM, 0.03 μM, 0.01 μM, 0.003 μM.
T-type test: Human Cav3.2 was cloned in stable HEK-293 cells, and then the operation was conducted with FLIPR Calcium 4 No-Wash kit. The cell medium was removed. To an HEPES solution free of calcium ion was added 20 μL dye to dye for 30 minutes at a temperature of 37° C. This buffer free of calcium ion included NaCl, 137 mM; KCl, 0.5 mM; MgCl2 mM, 1 mM; HEPES, 10 mM; glucose, 10 mM. The pH value was adjusted to 7.4 with NaOH. After 30 minutes, the buffer was placed at room temperature for 30 minutes. Then 5 μL of compound to be tested, solvent or blank control were added. The compound was formulated with a buffer containing calcium ion, said buffer including KCl, 135 mM; CaCl2, 10.8 mM; MgCl2, 1 mM; HEPES, 10 mM; glucose, 10 mM. The collected fluorescence values were analyzed and the inhibition ratios were calculated.

Sequence of L-type calcium ion channels (O35505 whole entry): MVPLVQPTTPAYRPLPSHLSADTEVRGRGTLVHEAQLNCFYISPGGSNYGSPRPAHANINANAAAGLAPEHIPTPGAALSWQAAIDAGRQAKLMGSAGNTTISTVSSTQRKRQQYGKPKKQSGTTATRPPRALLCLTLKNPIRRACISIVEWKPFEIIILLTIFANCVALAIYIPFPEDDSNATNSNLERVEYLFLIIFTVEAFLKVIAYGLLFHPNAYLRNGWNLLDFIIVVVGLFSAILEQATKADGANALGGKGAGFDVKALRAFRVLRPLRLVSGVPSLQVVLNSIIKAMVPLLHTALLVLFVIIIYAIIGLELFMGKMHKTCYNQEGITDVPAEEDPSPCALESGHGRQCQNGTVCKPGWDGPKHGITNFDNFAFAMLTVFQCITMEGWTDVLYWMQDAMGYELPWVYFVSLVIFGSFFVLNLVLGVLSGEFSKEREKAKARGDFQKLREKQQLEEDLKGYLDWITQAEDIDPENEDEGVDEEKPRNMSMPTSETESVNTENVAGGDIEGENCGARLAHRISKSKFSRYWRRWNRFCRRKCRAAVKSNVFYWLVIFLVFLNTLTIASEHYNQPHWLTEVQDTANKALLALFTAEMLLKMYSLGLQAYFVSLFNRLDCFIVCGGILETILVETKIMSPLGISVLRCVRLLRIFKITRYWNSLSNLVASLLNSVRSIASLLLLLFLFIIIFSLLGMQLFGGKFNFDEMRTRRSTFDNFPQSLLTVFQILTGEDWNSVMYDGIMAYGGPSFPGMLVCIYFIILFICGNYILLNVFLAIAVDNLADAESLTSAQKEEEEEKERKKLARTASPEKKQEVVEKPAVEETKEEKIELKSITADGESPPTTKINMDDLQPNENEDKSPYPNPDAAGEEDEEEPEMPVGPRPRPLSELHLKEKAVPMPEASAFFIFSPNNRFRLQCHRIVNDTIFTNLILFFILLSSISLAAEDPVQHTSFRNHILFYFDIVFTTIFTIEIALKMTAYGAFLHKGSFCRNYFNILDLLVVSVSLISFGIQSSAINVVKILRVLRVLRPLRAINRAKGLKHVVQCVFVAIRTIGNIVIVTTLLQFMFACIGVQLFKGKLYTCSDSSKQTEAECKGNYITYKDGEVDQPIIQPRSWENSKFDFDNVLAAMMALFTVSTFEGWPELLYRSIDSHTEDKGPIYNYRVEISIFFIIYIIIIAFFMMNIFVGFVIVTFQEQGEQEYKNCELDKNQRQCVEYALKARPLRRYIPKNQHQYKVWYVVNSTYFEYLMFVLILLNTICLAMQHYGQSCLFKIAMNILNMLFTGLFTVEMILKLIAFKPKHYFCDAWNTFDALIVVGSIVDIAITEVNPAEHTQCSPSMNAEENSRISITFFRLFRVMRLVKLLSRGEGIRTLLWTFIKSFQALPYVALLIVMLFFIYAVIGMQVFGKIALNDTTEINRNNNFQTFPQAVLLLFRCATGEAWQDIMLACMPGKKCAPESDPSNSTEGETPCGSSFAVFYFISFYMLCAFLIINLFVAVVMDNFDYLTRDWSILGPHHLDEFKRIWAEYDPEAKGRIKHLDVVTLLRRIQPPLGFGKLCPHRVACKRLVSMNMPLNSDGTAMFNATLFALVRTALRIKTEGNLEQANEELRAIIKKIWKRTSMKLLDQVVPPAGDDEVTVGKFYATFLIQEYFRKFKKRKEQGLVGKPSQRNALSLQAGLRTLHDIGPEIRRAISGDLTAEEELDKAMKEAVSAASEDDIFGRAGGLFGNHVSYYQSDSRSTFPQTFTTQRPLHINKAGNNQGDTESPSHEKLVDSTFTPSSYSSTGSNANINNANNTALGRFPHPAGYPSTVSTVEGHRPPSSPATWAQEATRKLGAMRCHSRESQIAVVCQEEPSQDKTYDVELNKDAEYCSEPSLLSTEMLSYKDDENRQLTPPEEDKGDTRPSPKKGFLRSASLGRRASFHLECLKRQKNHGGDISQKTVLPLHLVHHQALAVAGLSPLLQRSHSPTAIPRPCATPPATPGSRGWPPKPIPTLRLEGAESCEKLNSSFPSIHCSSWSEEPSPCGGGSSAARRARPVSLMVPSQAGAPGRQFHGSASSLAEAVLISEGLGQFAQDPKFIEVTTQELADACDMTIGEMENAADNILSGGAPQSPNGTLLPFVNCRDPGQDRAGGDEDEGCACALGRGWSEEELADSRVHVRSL
Sequence of Human Cav3.2 (O95180 whole entry): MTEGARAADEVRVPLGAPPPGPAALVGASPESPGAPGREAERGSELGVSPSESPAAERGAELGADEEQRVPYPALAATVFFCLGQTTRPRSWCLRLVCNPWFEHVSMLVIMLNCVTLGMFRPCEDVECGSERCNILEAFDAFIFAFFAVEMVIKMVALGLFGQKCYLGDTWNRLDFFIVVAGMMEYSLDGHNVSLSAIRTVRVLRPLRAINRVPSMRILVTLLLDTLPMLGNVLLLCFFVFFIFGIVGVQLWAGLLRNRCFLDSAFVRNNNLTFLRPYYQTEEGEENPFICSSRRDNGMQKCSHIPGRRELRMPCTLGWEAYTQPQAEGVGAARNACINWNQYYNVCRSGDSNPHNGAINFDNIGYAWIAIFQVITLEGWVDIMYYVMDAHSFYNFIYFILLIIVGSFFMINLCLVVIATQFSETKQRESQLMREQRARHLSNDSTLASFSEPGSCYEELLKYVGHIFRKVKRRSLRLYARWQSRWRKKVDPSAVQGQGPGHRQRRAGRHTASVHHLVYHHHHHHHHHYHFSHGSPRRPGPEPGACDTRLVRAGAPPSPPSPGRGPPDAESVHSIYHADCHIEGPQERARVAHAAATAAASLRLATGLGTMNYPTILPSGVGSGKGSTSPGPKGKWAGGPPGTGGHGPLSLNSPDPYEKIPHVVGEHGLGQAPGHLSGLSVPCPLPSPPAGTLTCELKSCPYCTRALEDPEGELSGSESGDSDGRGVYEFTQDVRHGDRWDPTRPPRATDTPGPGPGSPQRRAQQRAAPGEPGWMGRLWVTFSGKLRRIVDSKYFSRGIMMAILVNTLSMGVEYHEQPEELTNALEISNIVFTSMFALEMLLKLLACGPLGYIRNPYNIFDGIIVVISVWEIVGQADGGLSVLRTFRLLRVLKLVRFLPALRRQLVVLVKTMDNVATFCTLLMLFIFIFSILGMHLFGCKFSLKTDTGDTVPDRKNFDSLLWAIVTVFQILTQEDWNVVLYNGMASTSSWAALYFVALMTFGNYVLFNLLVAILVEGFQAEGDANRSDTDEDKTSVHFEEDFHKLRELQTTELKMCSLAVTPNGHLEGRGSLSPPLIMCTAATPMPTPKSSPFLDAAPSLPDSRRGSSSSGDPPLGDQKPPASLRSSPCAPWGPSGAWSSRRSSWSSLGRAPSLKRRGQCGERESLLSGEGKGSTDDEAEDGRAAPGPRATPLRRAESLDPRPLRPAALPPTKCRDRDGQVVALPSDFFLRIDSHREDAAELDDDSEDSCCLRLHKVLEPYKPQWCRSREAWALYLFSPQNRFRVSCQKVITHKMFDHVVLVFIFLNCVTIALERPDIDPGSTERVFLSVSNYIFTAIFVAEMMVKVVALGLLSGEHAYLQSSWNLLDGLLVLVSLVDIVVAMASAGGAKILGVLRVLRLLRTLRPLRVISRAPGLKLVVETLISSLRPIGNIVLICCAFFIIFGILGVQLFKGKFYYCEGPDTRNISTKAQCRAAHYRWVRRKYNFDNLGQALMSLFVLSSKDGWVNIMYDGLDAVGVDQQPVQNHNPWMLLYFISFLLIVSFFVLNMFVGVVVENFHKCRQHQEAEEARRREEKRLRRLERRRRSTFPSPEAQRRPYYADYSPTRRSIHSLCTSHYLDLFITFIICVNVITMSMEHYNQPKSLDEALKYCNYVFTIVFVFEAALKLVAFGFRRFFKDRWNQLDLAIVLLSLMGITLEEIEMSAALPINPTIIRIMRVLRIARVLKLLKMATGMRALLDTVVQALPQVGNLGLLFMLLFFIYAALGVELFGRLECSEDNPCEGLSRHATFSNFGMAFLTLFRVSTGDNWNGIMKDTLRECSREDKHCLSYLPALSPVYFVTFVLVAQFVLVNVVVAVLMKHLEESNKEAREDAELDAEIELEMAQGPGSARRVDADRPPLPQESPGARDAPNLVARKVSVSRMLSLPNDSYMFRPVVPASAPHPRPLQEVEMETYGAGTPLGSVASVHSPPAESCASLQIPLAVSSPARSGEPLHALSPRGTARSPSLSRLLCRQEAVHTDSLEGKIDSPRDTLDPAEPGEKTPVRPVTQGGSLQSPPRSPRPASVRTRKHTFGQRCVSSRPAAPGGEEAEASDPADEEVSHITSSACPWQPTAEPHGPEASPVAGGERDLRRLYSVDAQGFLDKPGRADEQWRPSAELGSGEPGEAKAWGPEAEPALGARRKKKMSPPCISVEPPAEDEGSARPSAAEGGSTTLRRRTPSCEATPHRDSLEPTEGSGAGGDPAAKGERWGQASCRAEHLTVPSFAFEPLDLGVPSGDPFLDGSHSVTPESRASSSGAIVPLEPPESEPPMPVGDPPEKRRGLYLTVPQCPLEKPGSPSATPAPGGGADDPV

| SMILES | IC50 [1] | IC50 [2] | ΔMAP > 20 (mmHg) Duration time of action [3] | Max ΔMAP (mmHg ± SEM) [3] | Max ΔMAP (mmHg ± SEM) (SHRs) | ΔMAP > 20 (mmHg) Duration time of action (SHRs) | IC50 (Human Cav3.2) |
| --- | --- | --- | --- | --- | --- | --- | --- |
| COC(=O)C1=C(C)NC(C)=C(C(=O)OC2(C)CCN(Cc3ccccc3)C2)C1c1cccc([N+](=O)[O-])c1 (centres unmarked) [Compound 1 hydrochloride, 3-(1-benzyl-3-methylpyrrolidin-3-yl) 5-methyl 2,6-dimethyl-4-(3-nitrophenyl)-1,4-dihydropyridine-3,5-dicarboxylate] | 4.47 µM | – | – | – | – | – | – |
| COC(=O)C1=C(C)NC(C)=C(C(=O)OC(C)(C)CN(C)CCC(c2ccccc2)c2ccccc2)C1c1cccc([N+](=O)[O-])c1 (centres unmarked) [lercanidipine, reference compound] | > 10 µM | 0.84 µM | 23 h | 77 ± 15 mmHg | 54 ± 7 mmHg | 14 h | – |
| COC(=O)C1=C(C)NC(C)=C(C(=O)O[C@H]2CCN(Cc3ccccc3)C2)[C@H]1c1cccc([N+](=O)[O-])c1 [barnidipine, reference compound] | 8.15 µM | 0.58 µM | 14 h | 81 ± 10 mmHg | 60 ± 6 mmHg | 9 h | 30.8 µM |
| CCOC(=O)C1=C(COCCN)NC(C)=C(C(=O)OC)C1c1ccccc1Cl (centres unmarked) [amlodipine, reference compound] | – | 1.11 µM | 24 h | 74 ± 8 mmHg | 48 ± 13 mmHg | 16 h | > 100 µM |
| COC(=O)C1=C(C)NC(C)=C(C(=O)O[C@@]2(C)CCN(CCC(c3ccccc3)c3ccccc3)C2)[C@H]1c1cccc([N+](=O)[O-])c1 [Compound 16, (S)-3-[(S)-1-(3,3-diphenylpropyl)-3-methylpyrrolidin-3-yl] 5-methyl 2,6-dimethyl-4-(3-nitrophenyl)-1,4-dihydropyridine-3,5-dicarboxylate] | 2.28 µM | 0.59 µM | – | – | 57 ± 5 mmHg | 11 h | 1.95 µM |
| COC(=O)C1=C(C)NC(C)=C(C(=O)OC2(C)CCN(CCC(c3ccccc3)c3ccccc3)C2)C1c1cccc([N+](=O)[O-])c1 (centres unmarked) [Compound 2 hydrochloride, 3-[1-(3,3-diphenylpropyl)-3-methylpyrrolidin-3-yl]5-methyl 2,6-dimethyl-4-(3-nitrophenyl)-1,4-dihydropyridine-3,5-dicarboxylate] | 3.2 µM | – | – | – | – | – | – |
